Experimental data reported in patent US10596127B2, “Composition for reducing the frequency of urination, method of making and use thereof” (WELLESLEY PHARMACEUTICALS, LLC, priority 2013, dated 2020).

Columns and labels:
[1] = test system: PGE2 secretion by normal human bladder smooth muscle cells; assay: PGE2 ELISA of normal human bladder smooth muscle cell supernatants; type: cell-based; conditions: for effect on the LPS-induced PGE2 responses: analgesic at either 5 μM or 50 μM
Method: Prostaglandin E2 responses were analyzed by a sequential competitive ELISA (R&D Systems). More specifically, culture supernatants or PGE2 standards were added to the wells of a 96-well polystyrene microplate coated with a goat anti-mouse polyclonal antibody. After one hour incubation on a microplate shaker, an HRP-conjugated PGE2 was added and plates incubated for an additional two hours at room temperature. The plates were then washed and HRP substrate solution added to each well. The color was allowed to develop for 30 min and the reaction stopped by addition sulfuric acid before reading the plate at 450 nm with wavelength correction at 570 nm. Results are expressed as mean pg/ml of PGE2.
(§1) Normal human bladder smooth muscle cells were isolated by enzymatic digestion from macroscopically normal pieces of human bladder. Cells were expended in vitro by culture at 37° C. in a 5% CO2 atmosphere in RPMI 1640 supplemented with 10% fetal bovine serum, 15 mM HEPES, 2 mM L-glutamine, 100 U/ml penicillin, and […] of streptomycin and passage once a week by treatment with trypsin to detach cells followed by reseeding in a new culture flask. The first week of culture, the culture medium was supplemented with 0.5 ng/ml epidermal growth factor, 2 ng/ml fibroblast growth factor, and 5 μg/ml insulin.
(§2) […] When no other effectors were added to the cells, 50 μl of RPMI 1640 without fetal bovine serum were added to the wells to adjust the final volume to 200 μl.
(§3) After 24 hours of culture, 150 μl of culture supernatants were collected, spun down for 2 min at 8,000 rpm at 4° C. to remove cells and debris and stored at −70° C. for analysis of Prostaglandin E2 (PGE2) responses by ELISA. Cells were fixed, permeabilized and blocked for detection of COX2 using a fluorogenic substrate. In selected experiment cells were stimulated 12 hours in vitro for analysis of COX2, PGE2 and cytokine responses.
(§4) COX2 and PGE2 responses were analyzed as described in Example 3. Cytokine responses were analyzed as described in Example 2.

[2] = test system: TNFα secretion by normal human bladder smooth muscle cells; assay: TNFα ELISA of normal human bladder smooth muscle cell supernatants; type: cell-based; conditions: for TNFα (pg/ml) Subject 2 / TNFα (pg/ml) Subject 1: Carbachol 10^−3 M plus analgesic 50 μM; for TNFα (pg/ml) Subject 2: carbachol alone 286, unstimulated <5; for TNFα (pg/ml) Subject 1: carbachol alone 350, unstimulated <5, mean of duplicates; for effect on the effect of carbachol and LPS on TNFα responses: LPS-induced responses: analgesic at either 5 μM or 50 μM
Method: Culture supernatants were subjected to cytokine-specific ELISA to determine IL-1β, IL-6 and TNF-α responses in cultures of macrophages treated with analgesic, LPS alone or a combination of LPS and analgesic. The assays were performed on Nunc MaxiSorp Immunoplates (Nunc) coated overnight with 100 μl of anti-mouse IL-6, TNF-α mAbs (BD Biosciences) or IL-1β mAb (R&D Systems) in 0.1 M sodium bicarbonate buffer (pH 9.5). After two washes with PBS (200 μl per well), 200 μl of PBS 3% BSA were added in each well (blocking) and the plates incubated for 2 hours at room temperature. Plates were washed again two times by addition of 200 μl per well, 100 μl of cytokine standards and serial dilutions of culture supernatants were added in duplicate and the plates were incubated overnight at 4° C. Finally, the plates were washed twice and incubated with 100 μl of secondary biotinylated anti-mouse IL-6, TNFα mAbs (BD Biosciences) or IL-1β (R&D Systems) followed by peroxidase-labelled goat anti-biotin mAb (Vector Laboratories). The colorimetric reaction was developed by the addition of 2,2′-azino-bis(3)-ethylbenzylthiazoline-6-sulfonic acid (ABTS) substrate and H2O2 (Sigma) and the absorbance measured at 415 nm with a Victor® V multilabel plate reader (PerkinElmer).
as §1
Bladder smooth muscle cells trypsinized and seeded in microculture plates at a cell density of 3×10^4 cells per well in 100 μl were treated with analgesic solutions (50 μl/well) either alone or together carbachol (10-Molar, 50 μl/well), as an example of non-inflammatory stimuli, or lipopolysaccharide (LPS) of Salmonella typhimurium (1 μg/ml, 50 μl/well), as an example of […] stimuli. When no other effectors were added to the cells, 50 μl of RPMI 1640 without fetal bovine serum were added to the wells to adjust the final volume to 200 μl.
as §3, §4

[3] = test system: COX2 expression by normal human bladder smooth muscle cells; assay: Cell-based ELISA of total COX2 in normal human bladder smooth muscle cells; conditions: for effect on the effect of carbachol and LPS on COX2 levels: LPS-induced responses: analgesic at either 5 μM or 50 μM
Method: COX2 responses were analyzed by a Cell-Based ELISA using Human/mouse total COX2 immunoassay (R&D Systems), following the instructions of the manufacturer. Briefly, after cells fixation and permeabilization, a mouse anti-total COX2 and a rabbit anti-total GAPDH were added to the wells of the clear-bottom black 96-well cell culture microculture plates. After incubation and washes, an HRP-conjugated anti-mouse IgG and an AP-conjugated anti-rabbit IgG were added to the wells. Following another incubation and set of washes, the HRP- and AP-fluorogenic substrates were added. Finally, a Victor® V multilabel plate reader (PerkinElmer) was used to read the fluorescence emitted at 600 nm (COX2 fluorescence) and 450 nm (GAPDH fluorescence). Results are expressed as relative levels of total COX2 as determined by relative fluorescence unit (RFUs) and normalized to the housekeeping protein GAPDH.
as §1, §2, §3, §4

[4] = test system: TNFα secretion by normal human bladder smooth muscle cells; assay: TNFα ELISA of normal human bladder smooth muscle cell supernatants; type: cell-based
[5] = test system: IL-6 secretion by normal human bladder smooth muscle cells; assay: IL-6 ELISA of normal human bladder smooth muscle cell supernatants; type: cell-based
[6] = Carbachol 10^−3 M plus analgesic 50 μM, carbachol alone 104, unstimulated <20.5
[7] = Carbachol 10^−3 M plus analgesic 50 μM, carbachol alone 129, unstimulated <20.5, mean of duplicates
[8] = LPS (10 μg/ml) plus analgesic 5 μM, LPS alone 998
[9] = LPS (10 μg/ml) plus analgesic 5 μM, LPS alone 1125, mean of duplicates
[10] = LPS (10 μg/ml) plus analgesic 50 μM, LPS alone 998
[11] = LPS (10 μg/ml) plus analgesic 50 μM, LPS alone 1125, mean of duplicates
[12] = Carbachol 10^−3 M plus analgesic 50 μM, carbachol alone 437, unstimulated 230, mean of duplicates
[13] = Carbachol 10^−3 M plus analgesic 50 μM, carbachol alone 462, unstimulated 199
[14] = LPS (10 μg/ml) plus analgesic 5 μM, LPS alone 633, unstimulated 199
[15] = LPS (10 μg/ml) plus analgesic 5 μM, LPS alone 672, unstimulated 230, mean of duplicates
[16] = LPS (10 μg/ml) plus analgesic 50 μM, LPS alone 633, unstimulated 199
[17] = LPS (10 μg/ml) plus analgesic 50 μM, LPS alone 672, unstimulated 230, mean of duplicates
[18] = LPS (10 μg/ml) plus analgesic 5 μM, LPS alone 4107
[19] = LPS (10 μg/ml) plus analgesic 5 μM, LPS alone 5725, mean of duplicates
[20] = LPS (10 μg/ml) plus analgesic 50 μM, LPS alone 4107
[21] = LPS (10 μg/ml) plus analgesic 50 μM, LPS alone 5725, mean of duplicates
[22] = LPS (10 μg/ml) plus analgesic 5 μM, LPS alone 4383
[23] = LPS (10 μg/ml) plus analgesic 5 μM, LPS alone 4838, mean of duplicates
[24] = LPS (10 μg/ml) plus analgesic 50 μM, LPS alone 4383
[25] = LPS (10 μg/ml) plus analgesic 50 μM, LPS alone 4838, mean of duplicates
[26] = stimulus alone, no analgesic (Carbachol 10^−3 M; LPS 10 μg/ml), unstimulated <20.5
[27] = stimulus alone, no analgesic (Carbachol 10^−3 M; LPS 10 μg/ml), unstimulated <5

Row | Structure (SMILES) | PGE2 levels (pg/ml) Subject 2 [1, 6] | PGE2 levels (pg/ml) Subject 1 [1, 7] | PGE2 levels (pg/ml) Subject 2 [1, 8] | PGE2 levels (pg/ml) Subject 1 [1, 9] | PGE2 levels (pg/ml) Subject 2 [1, 10] | PGE2 levels (pg/ml) Subject 1 [1, 11] | effect on the LPS-induced PGE2 responses [1] | TNFα (pg/ml) Subject 2 [2] | TNFα (pg/ml) Subject 1 [2] | effect on the effect of carbachol and LPS on TNFα responses [2] | Total COX2 levels (Normalized RFUs) subject 1 [3, 12] | Total COX2 levels (Normalized RFUs) subject 2 [3, 13] | TNFα (pg/ml) Subject 2 [4, 18] | TNFα (pg/ml) Subject 1 [4, 19] | TNFα (pg/ml) Subject 2 [4, 20] | TNFα (pg/ml) Subject 1 [4, 21] | IL-6 (pg/ml) Subject 2 [5, 22] | IL-6 (pg/ml) Subject 1 [5, 23] | IL-6 (pg/ml) Subject 2 [5, 24] | IL-6 (pg/ml) Subject 1 [5, 25] | further results
1 | CC(=O)Nc1ccc(O)cc1 [Acetaminophen, N-acetyl-para-aminophenol] | 62 pg/mL | 76 pg/mL | 542 pg/mL | 817 pg/mL | 540 pg/mL | 803 pg/mL | suppress | 164 pg/mL | 138 pg/mL | suppress | 298 Normalized RFUs | 310 Normalized RFUs | 2267 pg/mL | 2338 pg/mL | 2056 pg/mL | 2184 pg/mL | 2308 pg/mL | 2012 pg/mL | 1983 pg/mL | 2018 pg/mL | Total COX2 levels (Normalized RFUs) subject 2 [3, 14]: 457 Normalized RFUs; Total COX2 levels (Normalized RFUs) subject 1 [3, 15]: 428 Normalized RFUs; Total COX2 levels (Normalized RFUs) subject 2 [3, 16]: 509 Normalized RFUs; Total COX2 levels (Normalized RFUs) subject 1 [3, 17]: 399 Normalized RFUs; effect on the effect of carbachol and LPS on COX2 levels [3]: suppress
2 | CC(=O)Oc1ccccc1C(=O)O [Aspirin, Acetylsalicylic acid] | 59 pg/mL | 89 pg/mL | 598 pg/mL | 838 pg/mL | 534 pg/mL | 812 pg/mL | suppress | 142 pg/mL | 110 pg/mL | suppress | 312 Normalized RFUs | 297 Normalized RFUs | 2187 pg/mL | 2479 pg/mL | 2089 pg/mL | 2266 pg/mL | 2089 pg/mL | 2199 pg/mL | 2010 pg/mL | 1987 pg/mL | Total COX2 levels (Normalized RFUs) subject 2 [3, 14]: 491 Normalized RFUs; Total COX2 levels (Normalized RFUs) subject 1 [3, 15]: 472 Normalized RFUs; Total COX2 levels (Normalized RFUs) subject 2 [3, 16]: 484 Normalized RFUs; Total COX2 levels (Normalized RFUs) subject 1 [3, 17]: 413 Normalized RFUs; effect on the effect of carbachol and LPS on COX2 levels [3]: suppress
3 | C[N+](C)(C)CCOC(N)=O [Carbachol, carbachol] | – | – | – | – | – | – | – | – | – | – | – | – | – | – | – | – | – | – | – | – | PGE2 production in response to stimulus alone ([1]; no analgesic): induced production of PGE2; PGE2 levels (pg/ml) Subject 1 [1, 26]: 129 pg/mL; PGE2 levels (pg/ml) Subject 2 [1, 26]: 104 pg/mL; TNFα responses to stimulus alone ([2]; no analgesic): induced low, but significant TNFα and IL-6 responses; COX2 responses to stimulus alone ([3]; no analgesic): induced low, but significant COX2 responses; Total COX2 levels (Normalized RFUs) subject 2 ([3]; stimulus alone, no analgesic (Carbachol 10^−3 M; LPS 10 μg/ml), unstimulated 199): 462 Normalized RFUs; Total COX2 levels (Normalized RFUs) subject 1 ([3]; stimulus alone, no analgesic (Carbachol 10^−3 M; LPS 10 μg/ml), unstimulated 230): 437 Normalized RFUs; TNFα (pg/ml) Subject 1 [4, 27]: 350 pg/mL; TNFα (pg/ml) Subject 2 [4, 27]: 286 pg/mL; IL-6 (pg/ml) Subject 1 [5, 27]: 232 pg/mL; IL-6 (pg/ml) Subject 2 [5, 27]: 278 pg/mL
4 | CC(C)Cc1ccc(C(C)C(=O)O)cc1 (centres unmarked) [Ibuprofen, ibuprofen] | 73 pg/mL | 84 pg/mL | 527 pg/mL | 824 pg/mL | 501 pg/mL | 821 pg/mL | suppress | 121 pg/mL | 146 pg/mL | suppress | – | – | 2288 pg/mL | 2733 pg/mL | 1997 pg/mL | 2603 pg/mL | 2173 pg/mL | 2063 pg/mL | 1991 pg/mL | 2021 pg/mL | –
5 | COc1ccc2cc([C@H](C)C(=O)O)ccc2c1 [Naproxen] | 66 pg/mL | 77 pg/mL | 506 pg/mL | 859 pg/mL | 523 pg/mL | 819 pg/mL | suppress | 137 pg/mL | 129 pg/mL | suppress | 296 Normalized RFUs | 354 Normalized RFUs | 2215 pg/mL | 2591 pg/mL | 2192 pg/mL | 2427 pg/mL | 2229 pg/mL | 2077 pg/mL | 2028 pg/mL | 2102 pg/mL | Total COX2 levels (Normalized RFUs) subject 2 [3, 14]: 501 Normalized RFUs; Total COX2 levels (Normalized RFUs) subject 1 [3, 15]: 458 Normalized RFUs; Total COX2 levels (Normalized RFUs) subject 2 [3, 16]: 458 Normalized RFUs; Total COX2 levels (Normalized RFUs) subject 1 [3, 17]: 409 Normalized RFUs; effect on the effect of carbachol and LPS on COX2 levels [3]: suppress
